Measurements as given in paper PMC8228075, “In Vitro and In Silico Characterization of G-Protein Coupled Receptor (GPCR) Targets of Phlorofucofuroeckol-A and Dieckol” (Marine Drugs, 2021).
Blank lines part the entries; values can stand above or below the compound they belong to.

What was measured:
Format in all cases: cell-based
h5-HT1BR = h5-HT1BR (Homo sapiens, UniProt P28222); assay: h5-HT1BR functional antagonist assay (cAMP, HTRF, Hela cells)
Experimental: (§1) The in-house assay protocol and experimental conditions are reported in our previous reports. The functional effect of dieckol and PFF-A was characterized based on their modulation effect on cytosolic Ca^2+ ion mobilization using a fluorimetric detection method or by measuring their effect on cAMP modulation using homogeneous time-resolved fluorescence (HTRF) detection.
(§2) Functional activity of phlorotannins over hA2AR, hα2CAR, hCB1R, GLP-1R, and h5-HT1BR was determined by measuring their effects on cAMP production by the HTRF detection method using transected cells expressing human cloned receptors.
Concisely, a plasmid containing the GPCR gene of interest (5-HT1B) was transfected into Hela cells. The resulting stable transfectants were suspended in HBSS buffer (Invitrogen, Carlsbad, CA, USA) containing 20 mM HEPES (pH 7.4), […], 1 mg/mL glucose, and 500 μM IBMX and distributed in microplates at a density of 2 × 10^4 cells/well. […] Then, the cells were lysed and a fluorescence acceptor (D2-labeled cAMP) and fluorescence donor (anti-cAMP antibody with europium cryptate) were added following 60 min incubation at RT.

[1] = molecular target: T1, Cannabinoid receptor 1 (CB1R) (Homo sapiens, UniProt P21554); assay: hCB1R functional antagonist assay (cAMP, HTRF, CHO cells); settings: reference antagonist; read-out: Reference Drugs, IC50
T1 construct: host or cells: CHO cells
Experimental: as §1, §2
The transfected CHO cells were suspended in HBSS buffer (Invitrogen) complemented with 20 mM HEPES (pH 7.4). […] After 30 min of incubation at 37 °C, the cells were lysed and the fluorescence acceptor (D2-labeled cAMP) and fluorescence donor (anti-cAMP antibody labeled with europium cryptate) were added.

[2] = molecular target: T2, Free fatty acid receptor 1 (FFA1R) (GPR40) (Homo sapiens, UniProt O14842); assay: FFA1R/GPR40 functional agonist assay (Ca2+ mobilization, HEK-293 cells); settings: reference agonist; read-out: Reference Drugs, EC50
T2 construct: host or cells: HEK-293 cells
Experimental: The in-house assay protocol and experimental conditions are reported in our previous reports. […] Then, the mixture of fluorescent probe (Fluo4 Direct, Invitrogen) and probenecid in HBSS buffer (Invitrogen) complemented with 20 mM Hepes (Invitrogen) (pH 7.4) was added into each well and incubated for 60 min at 37 °C, followed by 15 min incubation at 22 °C. Thereafter, the assay plates were positioned in a CellLux microplate reader (PerkinElmer, Waltham, MA, USA) which was used for the addition of the following: For agonist assay-test compound, reference agonist, or HBSS buffer (basal control). Linoleic acid at 100 μM was added in separate assay wells for stimulated control measurement.

[3] = molecular target: T3, Alpha-2A adrenergic receptor (hα2AAR) (Homo sapiens, UniProt P08913); assay: hα2AAR functional antagonist assay (Ca2+ mobilization, rat basophil leukemia cells); settings: reference antagonist; read-out: Reference Drugs, IC50
T3 construct: host or cells: rat basophil leukemia cells
T3 sequence (P08913 1-465): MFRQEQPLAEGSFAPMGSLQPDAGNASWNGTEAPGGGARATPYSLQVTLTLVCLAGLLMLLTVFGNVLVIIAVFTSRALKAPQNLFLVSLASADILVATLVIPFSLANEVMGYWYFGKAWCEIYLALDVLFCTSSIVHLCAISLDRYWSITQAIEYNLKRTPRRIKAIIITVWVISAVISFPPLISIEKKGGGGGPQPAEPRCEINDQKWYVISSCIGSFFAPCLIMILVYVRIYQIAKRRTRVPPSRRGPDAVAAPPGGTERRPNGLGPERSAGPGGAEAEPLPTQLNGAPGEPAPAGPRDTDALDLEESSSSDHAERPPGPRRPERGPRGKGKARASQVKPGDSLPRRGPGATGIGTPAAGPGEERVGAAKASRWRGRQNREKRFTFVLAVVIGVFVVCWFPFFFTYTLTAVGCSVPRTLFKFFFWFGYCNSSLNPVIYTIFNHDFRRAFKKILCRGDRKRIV
From the text: as §1
The rat basophil leukemia cells were distributed in microplates at a density of 1.1 × 10^4 cells/well after suspending in a HBSS buffer (Invitrogen) containing 20 mM HEPES. Then, the fluorescent probe (Fluo8, AAT Bioquest) mixed with probenecid in HBSS buffer (Invitrogen) complemented with 20 mM Hepes (Millipore) (pH 7.4) was added into each well incubated for 60 min at 30 °C. Thereafter, the assay plates were positioned in a microplate reader (FlipR Tetra, Molecular Device) and we added test compounds, reference agonist/antagonist or HBSS buffer (basal control). Change in fluorescence intensity which varies proportionally to the free cytosolic Ca^2+ ion concentration was measured.

T2 sequence (O14842 whole entry): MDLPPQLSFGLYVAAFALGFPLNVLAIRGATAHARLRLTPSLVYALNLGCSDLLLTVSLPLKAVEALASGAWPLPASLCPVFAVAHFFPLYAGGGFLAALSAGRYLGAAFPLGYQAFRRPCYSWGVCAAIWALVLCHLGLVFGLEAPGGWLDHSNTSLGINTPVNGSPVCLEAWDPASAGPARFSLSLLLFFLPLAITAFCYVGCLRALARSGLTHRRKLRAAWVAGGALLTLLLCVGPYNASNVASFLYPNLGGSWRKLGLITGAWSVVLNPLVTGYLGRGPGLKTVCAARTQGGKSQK
Sequence of h5-HT1BR (P28222 whole entry): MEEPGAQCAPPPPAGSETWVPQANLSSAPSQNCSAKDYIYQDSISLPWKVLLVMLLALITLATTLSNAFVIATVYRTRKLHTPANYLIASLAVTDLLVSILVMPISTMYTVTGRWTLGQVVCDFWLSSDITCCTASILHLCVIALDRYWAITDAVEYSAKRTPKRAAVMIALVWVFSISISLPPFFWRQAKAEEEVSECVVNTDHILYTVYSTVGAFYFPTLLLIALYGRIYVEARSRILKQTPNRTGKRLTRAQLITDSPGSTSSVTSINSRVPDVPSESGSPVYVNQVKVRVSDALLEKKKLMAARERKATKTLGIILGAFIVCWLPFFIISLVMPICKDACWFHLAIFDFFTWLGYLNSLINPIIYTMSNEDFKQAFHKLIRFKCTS
T1 sequence (P21554 whole entry): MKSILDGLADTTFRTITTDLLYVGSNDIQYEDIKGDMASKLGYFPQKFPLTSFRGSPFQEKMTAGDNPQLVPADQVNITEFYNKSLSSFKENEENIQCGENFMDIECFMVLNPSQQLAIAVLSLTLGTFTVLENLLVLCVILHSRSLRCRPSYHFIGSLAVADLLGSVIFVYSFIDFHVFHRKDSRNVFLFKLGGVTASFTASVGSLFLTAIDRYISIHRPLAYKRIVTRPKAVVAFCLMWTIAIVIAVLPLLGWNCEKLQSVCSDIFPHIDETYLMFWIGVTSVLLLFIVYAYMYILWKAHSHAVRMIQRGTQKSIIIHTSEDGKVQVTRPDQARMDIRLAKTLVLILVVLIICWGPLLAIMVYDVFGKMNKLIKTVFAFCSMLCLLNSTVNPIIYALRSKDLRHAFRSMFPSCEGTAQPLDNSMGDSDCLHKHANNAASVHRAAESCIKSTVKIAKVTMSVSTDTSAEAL

IC50 (h5-HT1BR): 0.023 µM
SMILES: CN(C)CCCc1cc(C(=O)Nc2ccc(-c3ccncc3)cc2)ccc1O [GR55562, reference compound]

SMILES: Cc1c(C(=O)NN2CCOCC2)nn(-c2ccc(Cl)cc2Cl)c1-c1ccc(I)cc1 [AM 281, reference compound]
IC50 [1]: 0.077 µM

EC50 [2]: 10 µM
SMILES: CCCCC/C=C\C/C=C\CCCCCCCC(=O)O [linoleic acid, reference compound]

SMILES: COC1(C2=NCCN2)COc2ccccc2O1 (stereo not shown) [RX-821002, reference compound]
IC50 [3]: 0.017 µM
